Assay results taken from patent US20240190831A1, “TRANSTHYRETIN STABILIZING COMPOUNDS” (Protego Biopharma, Inc., priority 2021, published 2024).
Where a name gives a salt, the structure may show the parent alone.

Assay: In vitro rat liver S9 stability assay (formation of tafamidis)
Format: in vitro ADME
Details: rat liver S9, 1 μM test compound, 37° C.
Experimental: A stability assay in liver S9 (rat or human) was used to evaluate the ability of a compound provided herein to convert to an active TTR stabilizer. The test compound was added to liver S9 and incubated at 37° C. in a water bath at a concentration of 1 μM. At each time point (0, 5, 10, 20, 30 and 60 min), stop solution (tolbutamide plus labetalol) was added to precipitate protein and mixed thoroughly. After centrifugation, an aliquot of supernatant was analyzed by LC-MS/MS. The percentage of formation of active agent was calculated at each time point.

Formation of tafamidis at 60 min	SMILES
A (A is <25%)	O=C(N[C@@H]1CCC[C@@H]1O)c1ccc2nc(-c3cc(Cl)cc(Cl)c3)oc2c1 (relative stereo) [Compound 28, 2-(3,5-dichlorophenyl)-N-((cis)-2-hydroxycyclopentyl)benzo-[d]oxazole-6-carboxamide]
A (A is <25%)	O=C(N[C@@H]1CCC[C@H]1O)c1ccc2nc(-c3cc(Cl)cc(Cl)c3)oc2c1 (relative stereo) [Compound 29, 2-(3,5-dichlorophenyl)-N-((trans)-2-hydroxycyclopentyl)benzo-[d]oxazole-6-carboxamide]
A (A is <25%)	O=C(N[C@@H]1CC[C@H](O)C1)c1ccc2nc(-c3cc(Cl)cc(Cl)c3)oc2c1 (relative stereo) [Compound 30, 2-(3,5-dichlorophenyl)-N-((cis)-3-hydroxycyclopentyl)benzo-[d]oxazole-6-carboxamide]
A (A is <25%)	O=C(N[C@@H]1CC[C@@H](O)C1)c1ccc2nc(-c3cc(Cl)cc(Cl)c3)oc2c1 (relative stereo) [Compound 31, 2-(3,5-dichlorophenyl)-N-((trans)-3-hydroxycyclopentyl)benzo-[d]oxazole-6-carboxamide]
A (A is <25%)	O=C(N[C@@H]1CCCC[C@@H]1O)c1ccc2nc(-c3cc(Cl)cc(Cl)c3)oc2c1 (relative stereo) [Compound 32, 2-(3,5-dichlorophenyl)-N-((cis)-2-hydroxycyclohexyl)benzo-[d]oxazole-6-carboxamide]
A (A is <25%)	O=C(N[C@@H]1CCCC[C@H]1O)c1ccc2nc(-c3cc(Cl)cc(Cl)c3)oc2c1 (relative stereo) [Compound 33, 2-(3,5-dichlorophenyl)-N-((trans)-2-hydroxycyclohexyl)benzo-[d]oxazole-6-carboxamide]
A (A is <25%)	CN(C)[C@H]1CC[C@@H](OC(=O)c2ccc3nc(-c4cc(Cl)cc(Cl)c4)oc3c2)C1 (relative stereo) [Compound 46, Cis-3-(dimethylamino)cyclopentyl 2-(3,5-dichlorophenyl)benzo-[d]oxazole-6-carboxylate—HCl salt]
A (A is <25%)	CN(C)[C@@H]1CC[C@@H](OC(=O)c2ccc3nc(-c4cc(Cl)cc(Cl)c4)oc3c2)C1 (relative stereo) [Compound 47, Trans-3-(dimethylamino)cyclopentyl 2-(3,5-dichlorophenyl)benzo-[d]oxazole-6-carboxylate—HCl salt]
A (A is <25%)	O=C(O[C@H]1CCN2CCC[C@H]12)c1ccc2nc(-c3cc(Cl)cc(Cl)c3)oc2c1 (relative stereo) [Compound 58, (cis)-hexahydro-1H-pyrrolizin-1-yl 2-(3,5-dichlorophenyl)benzo[d]oxazole-6-carboxylate]
A (A is <25%)	O=C(O[C@H]1CCN2CCC[C@@H]12)c1ccc2nc(-c3cc(Cl)cc(Cl)c3)oc2c1 (relative stereo) [Compound 59, (trans)-hexahydro-1H-pyrrolizin-1-yl 2-(3,5-dichlorophenyl)benzo[d]oxazole-6-carboxylate]
C (C is ≥50 to <75%)	CC(CO)OC(=O)c1ccc2nc(-c3cc(Cl)cc(Cl)c3)oc2c1 (single isomer, unassigned) [Compound 43, 1-hydroxypropan-2-yl 2-(3,5-dichlorophenyl) benzo[d]oxazole-6-carboxylate]
C (C is ≥50 to <75%)	CC(CO)OC(=O)c1ccc2nc(-c3cc(Cl)cc(Cl)c3)oc2c1 (single isomer, unassigned) [Compound 44, 1-hydroxypropan-2-yl 2-(3,5-dichlorophenyl) benzo[d]oxazole-6-carboxylate]
A (A is <25%)	O=C(O[C@H]1CCCN2CCC[C@H]12)c1ccc2nc(-c3cc(Cl)cc(Cl)c3)oc2c1 (single isomer, unassigned) [Compound 69, Octahydroindolizin-8-yl 2-(3,5-dichlorophenyl)benzo[d]oxazole-6-carboxylate]
A (A is <25%)	O=C(O[C@H]1CCCN2CCC[C@@H]12)c1ccc2nc(-c3cc(Cl)cc(Cl)c3)oc2c1 (single isomer, unassigned) [Compound 70, Octahydroindolizin-8-yl 2-(3,5-dichlorophenyl)benzo[d]oxazole-6-carboxylate]
B (B is ≥25 to <50%)	O=C(O[C@H]1CCCN2CCCC[C@H]12)c1ccc2nc(-c3cc(Cl)cc(Cl)c3)oc2c1 (single isomer, unassigned) [Compound 71, Octahydro-1H-quinolizin-1-yl 2-(3,5-dichlorophenyl)benzo[d]oxazole-6-carboxylate]
A (A is <25%)	O=C(O[C@H]1CCCN2CCCC[C@@H]12)c1ccc2nc(-c3cc(Cl)cc(Cl)c3)oc2c1 (single isomer, unassigned) [Compound 72, Octahydro-1H-quinolizin-1-yl 2-(3,5-dichlorophenyl)benzo[d]oxazole-6-carboxylate]
A (A is <25%)	CC(F)(F)CNC(=O)c1ccc2nc(-c3cc(Cl)cc(Cl)c3)oc2c1 [Compound 1, 2-(3,5-dichlorophenyl)-N-(2,2-difluoropropyl)benzo[d]oxazole-6-carboxamide]
A (A is <25%)	CC(NC(=O)c1ccc2nc(-c3cc(Cl)cc(Cl)c3)oc2c1)C(F)F (centres unmarked) [Compound 2, 2-(3,5-dichlorophenyl)-N-(1,1-difluoropropan-2-yl)benzo[d]oxazole-6-carboxamide]

Formation of tafamidis at 60 min	SMILES
A (A is <25%)	O=C(NCC(F)(F)C(F)(F)F)c1ccc2nc(-c3cc(Cl)cc(Cl)c3)oc2c1 [Compound 3, 2-(3,5-dichlorophenyl)-N-(2,2,3,3,3-pentafluoropropyl)benzo[d]oxazole-6-carboxamide]
A (A is <25%)	NC(=O)c1ccc2nc(-c3cc(Cl)cc(Cl)c3)oc2c1 [Compound 4, 2-(3,5-dichlorophenyl)benzo[d]oxazole-6-carboxamide]
A (A is <25%)	N#CCNC(=O)c1ccc2nc(-c3cc(Cl)cc(Cl)c3)oc2c1 [Compound 5, N-(cyanomethyl)-2-(3,5-dichlorophenyl)benzo[d]oxazole-6-carboxamide]
A (A is <25%)	COCCNC(=O)c1ccc2nc(-c3cc(Cl)cc(Cl)c3)oc2c1 [Compound 6, 2-(3,5-dichlorophenyl)-N-(2-methoxyethyl)benzo[d]oxazole-6-carboxamide]
A (A is <25%)	CN(C)CCN(C)C(=O)c1ccc2nc(-c3cc(Cl)cc(Cl)c3)oc2c1 [Compound 8, 2-(3,5-dichlorophenyl)-N-(2-(dimethylamino)ethyl)-N-methylbenzo[d]oxazole-6-carboxamide]
A (A is <25%)	CNCCNC(=O)c1ccc2nc(-c3cc(Cl)cc(Cl)c3)oc2c1 [Compound 9, 2-(3,5-dichlorophenyl)-N-(2-(methylamino)ethyl)benzo[d]oxazole-6-carboxamide hydrochloride]
A (A is <25%)	CC(CO)NC(=O)c1ccc2nc(-c3cc(Cl)cc(Cl)c3)oc2c1 (centres unmarked) [Compound 10, 2-(3,5-dichlorophenyl)-N-(1-hydroxypropan-2-yl)benzo[d]oxazole-6-carboxamide]
A (A is <25%)	CC(O)CNC(=O)c1ccc2nc(-c3cc(Cl)cc(Cl)c3)oc2c1 (centres unmarked) [Compound 11, 2-(3,5-dichlorophenyl)-N-(2-hydroxypropyl)benzo[d]oxazole-6-carboxamide]
A (A is <25%)	O=C(NC1CC1(F)F)c1ccc2nc(-c3cc(Cl)cc(Cl)c3)oc2c1 (centres unmarked) [Compound 12, 2-(3,5-dichlorophenyl)-N-(2,2-difluorocyclopropyl)benzo[d]-oxazole-6-carboxamide]
A (A is <25%)	O=C(NC1CCCCC1(F)F)c1ccc2nc(-c3cc(Cl)cc(Cl)c3)oc2c1 (centres unmarked) [Compound 13, 2-(3,5-dichlorophenyl)-N-(2,2-difluorocyclohexyl)benzo[d]oxazole-6-carboxamide]
A (A is <25%)	O=C(NC1CCCC(F)(F)C1)c1ccc2nc(-c3cc(Cl)cc(Cl)c3)oc2c1 (centres unmarked) [Compound 14, 2-(3,5-dichlorophenyl)-N-(3,3-difluorocyclohexyl)benzo[d]oxazole-6-carboxamide]
A (A is <25%)	O=C(NC1CCC(F)(F)CC1)c1ccc2nc(-c3cc(Cl)cc(Cl)c3)oc2c1 [Compound 15, 2-(3,5-dichlorophenyl)-N-(4,4-difluorocyclohexyl)benzo[d]oxazole-6-carboxamide]
A (A is <25%)	O=C(NC1COC1)c1ccc2nc(-c3cc(Cl)cc(Cl)c3)oc2c1 [Compound 16, 2-(3,5-dichlorophenyl)-N-(oxetan-3-yl)benzo[d]oxazole-6-carboxamide]
A (A is <25%)	O=C(NC1CCOC1)c1ccc2nc(-c3cc(Cl)cc(Cl)c3)oc2c1 (centres unmarked) [Compound 17, 2-(3,5-dichlorophenyl)-N-(tetrahydrofuran-3-yl)benzo[d]oxazole-6-carboxamide]
A (A is <25%)	O=C(NC1CCC1)c1ccc2nc(-c3cc(Cl)cc(Cl)c3)oc2c1 [Compound 18, N-cyclobutyl-2-(3,5-dichlorophenyl)benzo[d]oxazole-6-carboxamide]
A (A is <25%)	O=C(NC1CCCC1)c1ccc2nc(-c3cc(Cl)cc(Cl)c3)oc2c1 [Compound 19, N-cyclopentyl-2-(3,5-dichlorophenyl)benzo[d]oxazole-6-carboxamide]
A (A is <25%)	O=C(NC1CC1)c1ccc2nc(-c3cc(Cl)cc(Cl)c3)oc2c1 [Compound 20, N-cyclopropyl-2-(3,5-dichlorophenyl)benzo[d]oxazole-6-carboxamide]
